Measurements as given in patent publication US20120071475A1, “UREA DERIVATIVES HAVING PI3K-INHIBITING ACTIVITY” (SHIONOGI & CO., LTD., priority 2009, published 2012).
pKi: −log10 of the molar value. ≈ marks a conversion by molar mass, not a printed value. Where two headings read alike, the source gives them in different places.

Assays:
[1] = target: T1, PI3Kγ (Homo sapiens, UniProt P48736); assay: PI3Kγ inhibitory activity (PI3-kinase HTRF assay, inhibition ratio); type: biochemical; details: 0.5 h, compound at 10 μmol/L; read-out: PI3Kg Inhibition Ratio % (10 μM)
T1 sequence (P48736 whole entry, species assumed): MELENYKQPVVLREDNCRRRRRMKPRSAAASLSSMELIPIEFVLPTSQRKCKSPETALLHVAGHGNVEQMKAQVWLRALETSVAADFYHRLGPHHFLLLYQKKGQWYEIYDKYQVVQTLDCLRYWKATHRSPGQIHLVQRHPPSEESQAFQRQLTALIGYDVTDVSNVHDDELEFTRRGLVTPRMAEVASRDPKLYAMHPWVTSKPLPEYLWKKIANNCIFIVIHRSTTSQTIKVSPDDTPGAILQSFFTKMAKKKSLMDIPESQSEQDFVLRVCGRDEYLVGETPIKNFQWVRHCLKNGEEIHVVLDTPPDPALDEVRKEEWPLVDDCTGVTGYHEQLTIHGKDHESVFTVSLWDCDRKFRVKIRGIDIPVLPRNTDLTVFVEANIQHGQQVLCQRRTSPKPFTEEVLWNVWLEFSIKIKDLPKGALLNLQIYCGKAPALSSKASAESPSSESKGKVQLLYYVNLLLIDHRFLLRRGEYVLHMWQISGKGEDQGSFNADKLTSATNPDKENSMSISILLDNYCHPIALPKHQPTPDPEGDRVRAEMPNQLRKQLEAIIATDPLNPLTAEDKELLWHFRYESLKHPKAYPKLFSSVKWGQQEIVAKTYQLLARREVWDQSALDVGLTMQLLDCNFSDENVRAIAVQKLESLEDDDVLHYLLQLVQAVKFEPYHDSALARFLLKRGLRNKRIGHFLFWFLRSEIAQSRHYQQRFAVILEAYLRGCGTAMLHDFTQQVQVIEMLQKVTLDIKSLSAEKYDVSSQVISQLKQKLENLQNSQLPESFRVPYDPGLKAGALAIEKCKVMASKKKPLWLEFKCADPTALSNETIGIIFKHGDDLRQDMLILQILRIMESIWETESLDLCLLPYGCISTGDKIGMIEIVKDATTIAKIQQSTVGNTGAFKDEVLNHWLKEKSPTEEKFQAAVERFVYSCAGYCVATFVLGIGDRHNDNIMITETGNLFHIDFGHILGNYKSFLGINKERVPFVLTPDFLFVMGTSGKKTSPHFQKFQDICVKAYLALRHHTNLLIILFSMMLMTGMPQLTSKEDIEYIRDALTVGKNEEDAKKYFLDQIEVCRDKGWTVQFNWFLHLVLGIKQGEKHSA
In short: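 Compound at 10 μmol/L preincubated 10 min with PI3Kγ and PIP2 substrate, then reacted with ATP for 30 minutes at room temperature; the compound, substrate and ATP figures as printed (40 μmol/L each) are solution concentrations. HTRF 665/620 nm ratio read after 18 hours. Inhibition ratio calculated against no-compound (100%) and no-enzyme (0%) controls.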

[2] = Solubility test (artificial intestinal juice pH 6.8, 1% DMSO); type: physicochemical; details: artificial intestinal juice pH 6.8 with 1% DMSO, fassgf or other biorelevant, kinetic from dmso stock, 25° C.
Method: The solubility of a compound was determined under a condition in which 1% DMSO was added. 10 mmol/L compound solution was prepared using DMSO, and then 6 μL of the compound solution was added to 594 μL of artificial intestinal juice in pH 6.8 (to 250 mL of 0.2 mol/L potassium dihydrogen phosphate reagent solution was added 118 mL of 0.2 mol/L NaOH reagent solution and water to provide a final volume of 1000 mL). After standing at 25° C. for 16 hours, the mixed solution was filtered with suction. The filtrate was diluted twice with methanol/water (1/1), and then a concentration in the filtration was measured with HPLC or LC/MS/MS by the absolute calibration method.

[3] = target: T2, CYP3A4 (Homo sapiens, UniProt P08684); assay: CYP3A4 fluorescence MBI test; type: in vitro ADME; details: difference in IC50 with 0 or 30 minutes pre-reaction; CYP3A4 expressed in E. coli, substrate 7-BFC
T2 construct: host or cells: E. coli
T2 sequence (P08684 whole entry): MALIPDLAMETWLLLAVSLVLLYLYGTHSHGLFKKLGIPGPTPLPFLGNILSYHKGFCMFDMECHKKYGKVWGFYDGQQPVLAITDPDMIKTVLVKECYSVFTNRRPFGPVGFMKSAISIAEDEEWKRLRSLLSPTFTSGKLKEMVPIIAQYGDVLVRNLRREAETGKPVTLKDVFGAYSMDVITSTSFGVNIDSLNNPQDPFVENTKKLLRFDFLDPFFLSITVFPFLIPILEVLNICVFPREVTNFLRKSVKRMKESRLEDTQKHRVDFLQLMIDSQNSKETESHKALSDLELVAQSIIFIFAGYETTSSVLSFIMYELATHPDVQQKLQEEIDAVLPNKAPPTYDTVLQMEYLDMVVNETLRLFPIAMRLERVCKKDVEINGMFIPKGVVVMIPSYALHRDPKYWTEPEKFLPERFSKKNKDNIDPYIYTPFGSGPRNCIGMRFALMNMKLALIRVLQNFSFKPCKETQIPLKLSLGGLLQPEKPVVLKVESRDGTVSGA
In short: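 E. coli-expressed CYP3A4 debenzylating 5.6 μmol/L 7-BFC to fluorescent 7-HFC (Ex 420/Em 535 nm) in K-Pi pH 7.4 at 25° C, 15 min reaction. NADPH pre-incubation of 0 or 30 min, with 10-fold dilution before reaction. IC50 from 0.625–20 μmol/L (6 points); (+) for an IC50 shift ≥5 μmol/L, (−) for ≤3 μmol/L.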

[4] = tested on: CYP1A2, CYP2C9, CYP2C19, CYP2D6 and CYP3A4 (one value for the five species); assay: CYP inhibition test, five CYP species together (5CYPs_IC50; pooled human liver microsome); type: in vitro ADME; details: human, microsomes
Source text: O-de-ethylation of 7-ethoxyresorufin (CYP1A2), methyl-hydroxylation of tolbutamide (CYP2C9), 4′-hydroxylation of mephenyloin (CYP2C19), O-demethylation of dextromethorphan (CYP2D6), and hydroxylation of terfenadine (CYP3A4), which are typical substrate for metabolic reactions of human main CYP5 molecular species (CYP1A2, 2C9, 2C19, 2D6, and 3A4), were adopted as indexes.
The reaction conditions are as follows: substrate: 0.5 μmol/L of ethoxyresorufin (CYP1A2), 100 μmol/L of tolbutamide (CYP2C9), 50 μmol/L of S-mephenyloin (CYP2C19), 5 μmol/L of dextromethorphan (CYP2D6), and 1 μmol/L of terfenadine (CYP3A4); reaction time; 15 minutes; reaction temperature: 37° C.; enzyme: pooled human liver microsome 0.2 mg protein/mL; test drug concentration: 1, 5, 10, and 20 μmol/L (4 points).
In a 96-well plate, as a reaction solution, five kinds of substrates, a human liver microsome, and a test drug were added to 50 mmol/L Hepes buffer solution in the aforementioned ratio. A coenzyme NADPH was added to start a metabolic reaction, which is an index. After reacting at 37° C. for 15 minutes, a solution of methanol/acetonitrile (1/1 (v/v)) was added to quench the reaction. After centrifugation at 3000 rpm for 15 minutes, resorufin (CYP1A2 metabolite) in the supernatant was quantitated with a fluorescence multilabel counter, and hydroxylated tolbutamide (CYP2C9 metabolite), 4′-hydroxylated mephenyloin (CYP2C19 metabolite), […], terfenadine in alcohol form (CYP3A4 metabolite) were quantitated with LC/MS/MS.
The case wherein only DMSO (a solvent which dissolved a drug) was added to a reaction system was defined as a control (100%). When a test drug solution was added, the remaining activity (%) at each concentration was calculated, and then IC50 was calculated with a concentration and an inhibition ratio by an inverse estimation using a logistic model.

[5] = Metabolic stability test (pooled human liver microsome); type: in vitro ADME; details: percentage of test compound remained after 30 minutes, pooled human liver microsome 0.5 mg protein/mL, 1 mmol/L NADPH, 37° C., compound 0.5 μM
In short: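 Pooled human liver microsomes (0.5 mg protein/mL) incubated with compound and 1 mmol/L NADPH at 37° C. in pH 7.4 Tris buffer for 0 or 30 min. Parent quantified by LC/MS/MS after methanol/acetonitrile quench; value is % remaining at 30 min versus 0 min.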

[6] = target: T3, hERG channel (IKr) (Homo sapiens, UniProt Q12809); assay: hERG test (whole-cell patch-clamp, IKr in HEK293 cells); type: cell-based; details: human, HEK293 cells expressing hERG channel, pH 7.4, inhibition of maximum tail current (IKr); for inhibition at 10 min, 1 µM: compound 1 μM
T3 construct: expressed in transfected cells; host or cells: HEK293
T3 sequence (Q12809 whole entry): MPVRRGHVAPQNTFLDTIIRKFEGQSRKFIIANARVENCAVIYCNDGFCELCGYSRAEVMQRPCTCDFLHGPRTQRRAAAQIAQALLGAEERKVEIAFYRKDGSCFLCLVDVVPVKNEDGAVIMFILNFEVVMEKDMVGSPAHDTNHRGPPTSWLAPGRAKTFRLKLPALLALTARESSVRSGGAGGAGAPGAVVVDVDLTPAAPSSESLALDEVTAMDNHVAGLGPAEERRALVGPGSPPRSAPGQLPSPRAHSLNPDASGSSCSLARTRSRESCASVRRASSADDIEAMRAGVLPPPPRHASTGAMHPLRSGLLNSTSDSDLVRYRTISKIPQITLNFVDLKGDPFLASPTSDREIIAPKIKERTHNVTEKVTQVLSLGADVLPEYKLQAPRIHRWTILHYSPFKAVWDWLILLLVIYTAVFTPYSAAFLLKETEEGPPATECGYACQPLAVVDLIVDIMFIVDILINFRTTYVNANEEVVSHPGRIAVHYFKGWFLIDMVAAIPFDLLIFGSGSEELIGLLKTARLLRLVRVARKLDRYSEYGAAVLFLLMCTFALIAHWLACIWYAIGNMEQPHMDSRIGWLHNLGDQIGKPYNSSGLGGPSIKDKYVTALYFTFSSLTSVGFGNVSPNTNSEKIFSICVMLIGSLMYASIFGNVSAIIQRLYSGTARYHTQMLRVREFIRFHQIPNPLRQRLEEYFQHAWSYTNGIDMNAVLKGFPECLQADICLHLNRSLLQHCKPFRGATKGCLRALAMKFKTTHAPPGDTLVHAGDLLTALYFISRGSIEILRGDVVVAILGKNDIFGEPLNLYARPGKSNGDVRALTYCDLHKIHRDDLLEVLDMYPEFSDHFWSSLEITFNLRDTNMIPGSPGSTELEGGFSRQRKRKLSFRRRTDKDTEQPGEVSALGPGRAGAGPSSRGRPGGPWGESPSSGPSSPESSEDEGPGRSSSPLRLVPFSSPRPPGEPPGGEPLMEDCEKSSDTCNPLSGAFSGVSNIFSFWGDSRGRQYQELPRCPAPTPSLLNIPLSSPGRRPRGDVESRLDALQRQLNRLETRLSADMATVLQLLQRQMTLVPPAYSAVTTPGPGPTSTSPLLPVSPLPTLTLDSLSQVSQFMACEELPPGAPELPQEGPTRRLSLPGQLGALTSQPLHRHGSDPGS
In short: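 hERG-expressing HEK293 cells, automated whole-cell patch clamp: hold −80 mV, +50 mV for 2 s, then −50 mV for 2 s to record IKr tail current. Compound in extracellular solution (pH 7.4) for 10 min at room temperature; inhibition of maximum tail current calculated versus pre-application and compared with 0.1% DMSO vehicle.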

[7] = tested on: AKT phosphorylation; assay: AKT phosphorylation inhibitory activity in MCP-1 stimulated THP-1 cells (sandwich ELISA); type: cell-based, Human; details: Homo sapiens, compound at 1 μmol/L, MCP-1 stimulation, read-out: AKT phosphorylation inhibition ratio
In short: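 THP-1 cells (6.7×10^6/mL in HBSS) were preincubated with compound at 1 μmol/L for 5 min at 37 °C, then stimulated for 60 s with HBSS containing 1.2 μg/mL MCP-1 and lysed. Phospho-Akt Ser473/AKT1 sandwich ELISA was read at A450. % inhibition: no compound = 100% activity, no MCP-1 = 0%.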

[8] = target: T1, PI3Kγ; assay: PI3Kγ inhibitory activity (Ki value); type: biochemical
In short: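 Ki derived from IC50 measured at final compound levels of 50–0.05 μmol/L (HTRF read-out; 40 μmol/L ATP, 10 mmol/L MgCl2, 5 mmol/L DTT), IC50 by logistic or two-point linear fit. ATP Km from Lineweaver-Burk over 0.625–80 μmol/L ATP; Ki = IC50/(1+[ATP]/Km).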

[9] = target: PI3Kα (Homo sapiens, UniProt P42336); assay: PI3Kα inhibitory activity (Ki value); type: biochemical; details: class symbols; read-out: PI3K α Ki
Chain of PI3Kα (P42336 whole entry, species assumed): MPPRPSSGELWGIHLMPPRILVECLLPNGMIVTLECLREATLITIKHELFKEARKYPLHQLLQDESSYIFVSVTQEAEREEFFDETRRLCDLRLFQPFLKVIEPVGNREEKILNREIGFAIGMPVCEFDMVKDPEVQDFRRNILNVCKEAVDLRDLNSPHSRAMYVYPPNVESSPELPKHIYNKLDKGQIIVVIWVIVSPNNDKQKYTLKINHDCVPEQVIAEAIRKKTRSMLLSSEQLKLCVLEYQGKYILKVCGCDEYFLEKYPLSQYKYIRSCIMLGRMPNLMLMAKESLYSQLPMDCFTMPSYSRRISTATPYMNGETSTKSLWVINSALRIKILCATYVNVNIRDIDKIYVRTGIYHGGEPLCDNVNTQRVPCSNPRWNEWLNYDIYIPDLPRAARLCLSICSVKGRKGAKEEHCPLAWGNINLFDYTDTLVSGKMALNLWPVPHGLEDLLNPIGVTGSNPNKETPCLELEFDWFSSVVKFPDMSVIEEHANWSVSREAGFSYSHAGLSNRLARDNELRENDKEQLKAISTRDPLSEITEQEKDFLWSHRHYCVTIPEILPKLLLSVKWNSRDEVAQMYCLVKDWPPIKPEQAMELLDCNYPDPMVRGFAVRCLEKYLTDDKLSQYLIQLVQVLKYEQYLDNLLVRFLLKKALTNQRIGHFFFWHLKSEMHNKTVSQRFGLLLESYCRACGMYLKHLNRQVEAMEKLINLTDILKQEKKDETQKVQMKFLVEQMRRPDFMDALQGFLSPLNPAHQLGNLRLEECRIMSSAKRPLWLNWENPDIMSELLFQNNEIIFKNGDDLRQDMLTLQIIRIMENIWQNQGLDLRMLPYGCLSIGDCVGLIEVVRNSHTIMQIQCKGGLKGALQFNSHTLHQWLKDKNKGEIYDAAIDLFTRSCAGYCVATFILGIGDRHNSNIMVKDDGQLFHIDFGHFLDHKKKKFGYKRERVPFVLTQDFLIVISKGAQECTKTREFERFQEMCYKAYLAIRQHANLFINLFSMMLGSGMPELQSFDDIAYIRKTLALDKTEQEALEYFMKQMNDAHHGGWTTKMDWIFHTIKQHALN
Chain of PI3Kα (P27986 whole entry partner, species assumed): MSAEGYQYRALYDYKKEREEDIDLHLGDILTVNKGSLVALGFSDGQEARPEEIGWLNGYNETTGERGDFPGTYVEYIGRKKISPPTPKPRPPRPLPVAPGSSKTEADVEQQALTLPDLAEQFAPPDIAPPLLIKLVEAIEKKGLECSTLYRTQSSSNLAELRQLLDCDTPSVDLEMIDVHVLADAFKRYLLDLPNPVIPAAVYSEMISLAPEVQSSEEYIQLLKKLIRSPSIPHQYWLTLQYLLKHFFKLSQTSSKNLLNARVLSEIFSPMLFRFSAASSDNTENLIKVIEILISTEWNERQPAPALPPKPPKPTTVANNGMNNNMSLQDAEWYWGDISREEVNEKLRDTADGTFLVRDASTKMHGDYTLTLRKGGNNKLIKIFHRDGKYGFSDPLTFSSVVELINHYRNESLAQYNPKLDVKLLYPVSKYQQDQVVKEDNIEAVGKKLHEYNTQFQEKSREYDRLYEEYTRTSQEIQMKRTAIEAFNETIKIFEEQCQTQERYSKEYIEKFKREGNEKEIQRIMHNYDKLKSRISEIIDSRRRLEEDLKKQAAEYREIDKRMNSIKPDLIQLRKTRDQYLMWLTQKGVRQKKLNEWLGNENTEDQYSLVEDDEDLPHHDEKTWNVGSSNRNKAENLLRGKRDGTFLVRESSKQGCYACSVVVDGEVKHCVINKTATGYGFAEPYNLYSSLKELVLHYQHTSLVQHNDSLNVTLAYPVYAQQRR
Method: (§1) According to Example 2 above, after 80 μg/mL PI-3 kinase γ of the enzyme solution (80 μg/mL PI-3 kinase γ, 10 mmol/L MgCl2, 5 mmol/L DTT) was changed to 0.8 μg/mL PI-3 kinase α, an inhibition ratio was calculated by a method similar to the method for measuring PI3Kγ inhibitory activity, and then defined as the PI3Kα inhibitory activity.
The α inhibitory activity (Ki value) of a compound was evaluated according to the following procedure.
According to Example 4 above, a Km value for PI3Kα was determined to calculate a Ki value.

[10] = target: PI3Kβ (Homo sapiens, UniProt P42338); assay: PI3Kβ inhibitory activity (Ki value); type: biochemical; details: class symbols; read-out: PI3K β Ki
Method: as §1, with “60” for “0.8”, “β,” for “α, an inhibition ratio was calculated by”, “activity was used to calculate an inhibition ratio, which was” for “activity, and then”, “PI3Kβ” for “PI3Kα”
According to Example 4 above, a Km value for PI3Kβ was determined to calculate a Ki value.

[11] = target: PI3Kδ (Homo sapiens, UniProt O00329); assay: PI3Kδ inhibitory activity (Ki value); type: biochemical; details: class symbols; read-out: PI3K δ Ki
Method: as §1, with “158” for “0.8”, “δ,” for “α, an inhibition ratio was calculated by”, “activity was used to calculate an inhibition ratio, which was” for “activity, and then”, “PI3Kδ” for “PI3Kα”
According to Example 4 above, a Km value for PI3Kδ was determined to calculate a Ki value.

Row | SMILES | inhibition at 10 µM [1] [%] | solubility at 16 h [2] [µM] | IC50 at 15 min [4] [µM] | hLMS_ox(at 0.5 μM) % [5] [%] | also measured
1 | COc1cc(N2CCc3nc(NC(=O)Nc4ccccc4C(=O)N4CCOCC4)sc3C2)nc(OC)n1 [Compound I-10] | 68 | > 50 | > 20 | – | MBI [3]: (−) (When 3 μmol/L or less, the compound is shown as (−))
2 | COc1cc(N2CCc3nc(NC(=O)Nc4ccccc4C(=O)NC(C)(C)C(=O)O)sc3C2)nc(OC)n1 [Compound I-19] | ≥ 95 | > 50 | > 20 | 87.2 | inhibition at 10 min, 10 µM ([6]; compound 10 μM): 9.5%
3 | COc1cc(N2CCc3nc(NC(=O)NC4CCCCC4C(=O)NC(C)C)sc3C2)nc(OC)n1 (stereo not drawn) [Compound I-31] | 90 | 32.3 (≈ 16.3 µg/mL) | ≥ 10 | – | –
4 | COc1cc(N2CCc3nc(NC(=O)Nc4ccccc4CNC(C)C)sc3C2)nc(OC)n1 [Compound I-84] | – | > 50 | > 20 | – | –
5 | CCNC(=O)c1ccncc1NC(=O)Nc1nc2c(s1)CN(c1cnc(OC)c(OC)c1)CC2 [Compound I-103] | ≥ 95 | 30.1 (≈ 14.6 µg/mL) | – | 85.8 | inhibition at 10 min, 1 µM [6]: 3.6%
6 | COc1ccc(N2CCc3nc(NC(=O)Nc4ccccc4C(=O)NC(C)CO)sc3C2)cc1OC (stereo not drawn) [Compound I-107] | – | 42.6 (≈ 21.8 µg/mL) | ≥ 10 | 98 | inhibition at 10 min, 1 µM [6]: 5.4%
7 | CC(CO)NC(=O)c1ccccc1NC(=O)Nc1nc2c(s1)CN(c1ccc(F)cn1)CC2 (stereo not drawn) [Compound I-120] | ≥ 95 | 17.5 (≈ 8.23 µg/mL) | – | 92.3 | –

Further lines, with some results ahead:

Row | inhibition at 10 µM [1] [%] | solubility at 16 h [2] [µM] | IC50 at 15 min [4] [µM] | hLMS_ox(at 0.5 μM) % [5] [%] | SMILES | also measured
8 | ≥ 95 | > 50 | – | 94.5 | COc1cc(N2CCc3nc(NC(=O)Nc4ccccc4C(=O)NC(C)CN(C)C)sc3C2)nc(OC)n1 (stereo not drawn) [Compound I-137] | inhibition at 1 µM [7]: 85%
9 | – | 36.1 (≈ 17.2 µg/mL) | > 20 | – | CCOC(=O)[C@H]1CCC[C@H]1NC(=O)Nc1nc2c(s1)CN(c1cc(OC)nc(OC)n1)CC2 [Compound I-149] | –
10 | 86 | 24.9 (≈ 13.1 µg/mL) | – | 99 | COc1cc(N2CCc3nc(NC(=O)Nc4ccccc4C(=O)NCC(C)(C)O)sc3C2)nc(OC)n1 [Compound I-158] | inhibition at 1 µM [7]: ≥ 95%; inhibition at 10 min, 1 µM [6]: 9.2%
11 | ≥ 95 | 10 (≈ 4.53 µg/mL) | – | 97.9 | CC(C)NC(=O)c1ccccc1NC(=O)Nc1nc2c(s1)CN(c1cc[nH]c(=O)c1)CC2 [Compound I-178] | –
12 | ≥ 95 | 19.6 (≈ 9.77 µg/mL) | – | 88.1 | COc1cc(N2CCc3nc(NC(=O)Nc4ccccc4C(=O)NN(C)C)sc3C2)nc(OC)n1 [Compound I-182] | inhibition at 1 µM [7]: ≥ 95%; inhibition at 10 min, 1 µM [6]: 4.9%
13 | 91 | 28.1 (≈ 13.2 µg/mL) | – | 109 | C[C@@H](CO)NC(=O)c1ccccc1NC(=O)Nc1nc2c(s1)CN(c1cc[nH]c(=O)c1)CC2 [Compound I-183] | pKi ([8]; class symbols, read-out: PI3K γ Ki): ≥ 6.52; pKi ([8]; read-out: PI3Kγ Ki value): 7.05; pKi [9]: < 5.52; pKi [10]: < 5.52; pKi [11]: < 5.52
14 | 92 | 10.3 (≈ 4.92 µg/mL) | – | – | C[C@@H](CO)NC(=O)c1ccccc1NC(=O)Nc1nc2c(s1)CN(c1cncc(C#N)c1)CC2 [Compound I-189] | MBI [3]: (−) (When 3 μmol/L or less, the compound is shown as (−))
15 | ≥ 95 | > 50 | ≥ 10 | 104 | COc1cc(N2CCc3nc(NC(=O)Nc4ccccc4C(=O)NC4CCNCC4)sc3C2)nc(OC)n1 [Compound I-202] | –
16 | ≥ 95 | 14 (≈ 7.27 µg/mL) | ≥ 10 | – | CC(C)NC(=O)c1ccccc1NC(=O)Nc1nc2c(s1)CN(c1cnc(N)c(C(F)(F)F)c1)CC2 [Compound I-212] | inhibition at 1 µM [7]: ≥ 95%
